Literature values as cited in US8716354B2 (priority 2003, dated 2014).

Details: intravenous injection of a therapeutic dose

For `CC(C)c1cccc(C(C)C)c1O` [propofol, 2,6-diisopropylphenol], which “Time to hypnosis from the start of injection” value is on record?
The value was ≤ 40 s.
